Assay in all cases: ≥ marks a high value that may be exact or a test limit, other limits are often not marked, values filed in µg/mL are converted to µM
For assay [1], the system named is Pseudomonas aeruginosa 910.
In assay [2] the test system is Pseudomonas aeruginosa PAO1.
The subject of assay [3] is Pseudomonas aeruginosa 919.
For assay [4], the system named is Pseudomonas aeruginosa 253.
The test system of assay [5] is Bacillus subtilis ATCC 6633.
The test system of assay [6] is Staphylococcus aureus ATCC 33592.
The subject of assay [7] is Escherichia coli ATCC 25922.
Assay [8] deals with Cryptococcus neoformans.
Assay [9] concerns Staphylococcus aureus ATCC 25923.
The test system of assay [10] is Candida parapsilosis ATCC 22019.
Assay [11] has as its system Pseudomonas aeruginosa ATCC BAA-427.
Assay [12] concerns Staphylococcus aureus ATCC 29213.
For assay [13], the system named is Escherichia coli ATCC 9637.
In assay [14] the test system is Staphylococcus aureus ATCC BAA-44.
Assay [15] relates to Staphylococcus aureus ATCC 700699.
Assay [16] relates to Candida albicans ATCC 10231.
The subject of assay [17] is Klebsiella pneumoniae ATCC 27736.
Assay [18] has as its system Staphylococcus aureus ATCC 700698.
Assay [19] concerns Bacillus subtilis 168 HT.
Assay [20] concerns Staphylococcus haemolyticus 527.
Assay [21] relates to Staphylococcus aureus ST88.
Assay [22] relates to Escherichia coli K12 MG1655.
The test system of assay [23] is Pseudomonas aeruginosa NBRC 12582.
In assay [24] the test system is Staphylococcus aureus NBRC 12732.
In assay [25] the test system is Saccharomyces cerevisiae NBRC 10217.
Assay [26] concerns Escherichia coli NBRC 14237.
The subject of assay [27] is Staphylococcus aureus USA 300 LAC.
The subject of assay [28] is Klebsiella pneumoniae ATCC 13883.
Assay [29] deals with Micrococcus luteus NBRC 3333.
Assay [30] has as its system Candida viswanathii NBRC 10321.
Assay [31] relates to Staphylococcus epidermidis NBRC 12993.
Assay [32] has as its system Escherichia coli NBRC 3972.
The test system of assay [33] is Aspergillus oryzae NBRC 100959.
For assay [34], the system named is Escherichia coli IFO 14237.
The subject of assay [35] is Bacillus subtilis IFO 3037.
Assay [36] relates to Pseudomonas aeruginosa IFO 12582.
The subject of assay [37] is Staphylococcus aureus IFO 12732.

Values after ≈ are worked out from the molar mass of the structure shown. Values joined by “and” are separate entries in the source; they are usually repeats but may differ in a detail not shown here. Equal entries are not always repeated. Bounds are passed on as bounds.

Usually MIC stands for the lowest concentration found to suppress growth. High values mean weaker potency, low ones greater potency. Consider `CC[C@H](C)[C@H](NC(=O)[C@@H](N)Cc1ccccc1)C(=O)N[C@@H](CCCCN)C(=O)N[C@@H](Cc1c[nH]c2ccccc12)C(=O)N[C@@H](CCCCN)C(=O)N[C@@H](CCCCN)C(=O)N[C@@H](CCCN=C(N)N)C(=O)N[C@@H](Cc1c[nH]c2ccccc12)C(=O)N[C@@H](Cc1c[nH]c2ccccc12)C(=O)N[C@@H](CCCCN)C(=O)N[C@@H](CCCCN)C(=O)N[C@@H](CCCN=C(N)N)C(=O)N[C@H](C(N)=O)[C@@H](C)O` [FIKWKKRWWKKRT], for which the MIC is 8 µM (≈ 15.1 µg/mL) in [1], 4 µM (≈ 7.56 µg/mL) in [2], at least 32 µM in assay [3] and 16 µM (≈ 30.2 µg/mL) in assay [4].
Take `CC[C@H](C)[C@H](NC(=O)[C@H](CCCN=C(N)N)NC(=O)CNC(=O)[C@H](CC(C)C)NC(=O)[C@H](CCCCN)NC(=O)[C@H](CCCCN)NC(=O)[C@H](Cc1c[nH]c2ccccc12)NC(=O)[C@H](Cc1ccccc1)NC(=O)[C@H](CO)NC(=O)[C@H](CCCCN)NC(=O)[C@@H](NC(=O)[C@@H](N)Cc1ccccc1)C(C)C)C(=O)N[C@@H](CC(C)C)C(N)=O` [FVKSFWKKLGRIL]: the MIC in assay [5] is 3.8 µM (≈ 6.16 µg/mL); in [6], 12 µM (≈ 19.5 µg/mL); in assay [7], 1.9 µM (≈ 3.08 µg/mL); in [8], 6 µM (≈ 9.73 µg/mL); in assay [9], 3.8 µM and 7.6 µM; in [10], 6 µM (≈ 9.73 µg/mL). Besides, the MIC in assay [11] came to 6.8 µM (≈ 11 µg/mL); in [12] it was 12 µM (≈ 19.5 µg/mL); in assay [13], 6.25 µM (≈ 10.1 µg/mL); in assay [14], 12 µM (≈ 19.5 µg/mL); in assay [15] it was 12 µM (≈ 19.5 µg/mL); in assay [16] it was 6 µM (≈ 9.73 µg/mL). For the same molecule, the MIC in assay [17] worked out at 3.8 µM (≈ 6.16 µg/mL); in assay [18] it was 12 µM (≈ 19.5 µg/mL).
As to `CC[C@H](C)[C@H](N)C(=O)N[C@H](C(=O)N[C@@H](CCCCN)C(=O)N[C@@H](CCCN=C(N)N)C(=O)N[C@@H](Cc1ccccc1)C(=O)N[C@@H](Cc1ccccc1)C(=O)N[C@@H](CCCN=C(N)N)C(=O)N[C@H](C(=O)N[C@@H](CO)C(=O)N[C@@H](Cc1ccc(O)cc1)C(=O)N[C@@H](CCCCN)C(=O)N[C@@H](CC(C)C)C(=O)N[C@@H](CCC(N)=O)C(=O)N[C@@H](CO)C(=O)N[C@@H](CC(C)C)C(=O)N[C@@H](CCCCN)C(=O)N[C@H](C(=O)N[C@H](C(=O)N[C@@H](CCCCN)C(=O)NCC(=O)N[C@@H](CCCCN)C(=O)N[C@@H](CCCN=C(N)N)C(=O)N[C@H](C(=O)N[C@@H](Cc1ccccc1)C(=O)N[C@H](C(=O)O)[C@@H](C)O)[C@@H](C)O)[C@@H](C)CC)[C@@H](C)CC)[C@@H](C)CC)C(C)C` [IVKRFFRISYKLQSLKIIKGKRTFT], the MIC in [19] was 5.3 µM (≈ 16.3 µg/mL); in [20], 5.3 µM (≈ 16.3 µg/mL); in [21], at least 100 µM; in [22], 10.5 µM (≈ 32.3 µg/mL).
Turning to `CSCC[C@H](NC(=O)CNC(=O)[C@@H](NC(=O)[C@H](CCCCN)NC(=O)[C@H](C)NC(=O)CNC(=O)[C@@H](NC(=O)[C@H](CCCCN)NC(=O)[C@H](C)NC(=O)[C@H](C)NC(=O)[C@H](CCCCN)NC(=O)[C@H](CCCCN)NC(=O)[C@H](CC(C)C)NC(=O)[C@H](Cc1ccccc1)NC(=O)[C@H](CC(N)=O)NC(=O)[C@H](CC(C)C)NC(=O)[C@H](Cc1ccccc1)NC(=O)[C@H](CCCCN)NC(=O)CNC(=O)CNC(=O)[C@@H](N)CCCCN)C(C)C)C(C)C)C(=O)N[C@@H](C)C(=O)N[C@@H](C)C(=O)N[C@@H](CC(C)C)C(=O)NCC(=O)O` [KGGKFLNFLKKAAKVGAKVGMAALG], the MIC in [23] was 6.25 µM (≈ 15.7 µg/mL); in assay [24] it was 3.12 µM (≈ 7.83 µg/mL); in [25], 6.25 µM (≈ 15.7 µg/mL); in [26], 3.12 µM (≈ 7.83 µg/mL).
With `CC[C@H](C)[C@H](N)C(=O)N[C@@H](Cc1c[nH]c2ccccc12)C(=O)N[C@@H](Cc1c[nH]c2ccccc12)C(=O)N[C@@H](Cc1c[nH]c2ccccc12)C(=O)N[C@@H](Cc1c[nH]c2ccccc12)C(=O)N[C@@H](CC(C)C)C(=O)N[C@@H](CCCN=C(N)N)C(=O)N[C@@H](CCCCN)C(N)=O` [IWWWWLRK], the minimum inhibitory concentration (MIC) in assay [7] came to 12.5 µM (≈ 15.9 µg/mL); in [27], 3.1 µM (≈ 3.94 µg/mL); in [28] it was 17.7 µM (≈ 22.5 µg/mL).
In the case of `CSCC[C@H](NC(=O)[C@H](CCCCN)NC(=O)[C@@H](N)CCCN=C(N)N)C(=O)N[C@@H](CCCCN)C(=O)N[C@@H](CCCN=C(N)N)C(=O)N[C@H](C(=O)N[C@@H](Cc1c[nH]c2ccccc12)C(=O)N[C@@H](CCCCN)C(=O)N[C@@H](CCCN=C(N)N)C(=O)N[C@@H](Cc1ccccc1)C(=O)N[C@@H](CCCCN)C(=O)N[C@@H](CC(C)C)C(=O)O)C(C)C` [RKMKRVWKRFKL], the MIC was 29.8 µM (≈ 50 µg/mL) in [29]; 14.9 µM (≈ 25 µg/mL) in assay [30]; 14.9 µM (≈ 25 µg/mL) in assay [31]; at least 239 µM in assay [32]; 14.9 µM (≈ 25 µg/mL) in assay [33].
For the molecule `CC[C@H](C)[C@H](NC(=O)[C@H](CC(N)=O)NC(=O)[C@H](CC(C)C)NC(=O)[C@H](CCCCN)NC(=O)[C@@H](NC(=O)[C@@H](NC(=O)[C@H](CC(=O)O)NC(=O)[C@@H](N)Cc1ccccc1)[C@@H](C)CC)[C@@H](C)O)C(=O)N[C@@H](CCCCN)C(=O)N[C@@H](CCCCN)C(=O)N[C@@H](CC(C)C)C(=O)N[C@H](C(=O)N[C@@H](CCCCN)C(=O)N[C@@H](C)C(=O)N[C@H](C(=O)N[C@H]1CSSC[C@@H](C(=O)N[C@@H](CCCCN)C(=O)N[C@H](C(=O)N[C@@H](CC(C)C)C(=O)N[C@@H](Cc2ccccc2)C(=O)N[C@@H](CC(=O)O)C(=O)N[C@@H](CCCCN)C(=O)N[C@@H](CCCCN)C(=O)N[C@@H](CCCCN)C(=O)N[C@@H](CCC(N)=O)C(=O)N[C@@H](CCC(=O)O)C(=O)O)C(C)C)NC(=O)[C@H](CCSC)NC(=O)[C@H](CO)NC(=O)[C@H](C)NC(=O)CNC(=O)[C@H](CCCCN)NC(=O)[C@H](CO)NC(=O)[C@H]([C@@H](C)CC)NC(=O)[C@H](C(C)C)NC(=O)[C@H](CCCCN)NC1=O)[C@@H](C)O)[C@@H](C)O` [FDITKLNIKKLTKATCKVISKGASMCKVLFDKKKQE], the MIC in assay [34] was 6.25 µM (≈ 25.5 µg/mL); in [35], at least 50 µM; in assay [36], 25 µM (≈ 102 µg/mL); in assay [37], 6.25 µM (≈ 25.5 µg/mL).

The record behind these values is DBAASP.
